Assay results: patent publication US20150038404A1, “MACROCYCLIC COMPOUNDS” (University of Florida Research Foundation, priority 2012, published 2015)

What was measured:
Format in all cases: cell-based
BEAS-2B cells [1] = assay: Cell viability (MTT) assay of bronchial epithelial cells challenged with elastase; details: within 24 h of treatment, read-out: IC50 of anti-proliferative activity on bronchial epithelial cells
Protocol: FIG. 3. […] HNE induced cell death after 24 h and this was alleviated by cotreatment with compound 1.
Bronchial epithelial cells (BEAS-2B, ATCC) were grown in bronchial epithelial basal media (BEBM, Lonza) supplemented with bronchial epithelial growth factors (Lonza) under a humidified environment with 5% CO2 at 37° C. BEAS-2B (5,000) cells were seeded in collagen-coated 96-well plates and treated with varying concentrations of elastase after 24 h of seeding. […] The cells were incubated for an additional 24 h before the addition of the MTT reagent. Cell viability was measured according to the manufacturer's instructions (Promega). IC50 calculations were done by GraphPad Prism 5.03 based on duplicate experiments.

sICAM-1 = assay: Measurement of sICAM-1 levels in culture supernatants (AlphaLisa); details: elastase-challenged BEAS-2B cells, 6 h, P<0.05
Protocol: A significant difference in expression of fully glycosylated mICAM-1 (˜100 kDa) was observed between the control and elastase treatment, with maximum expression in the former. […] This inverse relationship is consistent with measurements of sICAM-1 levels in the culture supernatants and provided internal validation of the direct effects of elastase with the proteolytic cleavage of ICAM-1.
BEAS-2B cells (60,000) were seeded in collagen-coated 24-well plates. After overnight incubation, the media was replaced with supplement-free media and the cells were further incubated for 24 h. At the end of the incubation period, cells were replenished with new supplement-free media prior to treatment. Stock human neutrophil elastase solution was prepared in sodium acetate and test aliquots were further diluted in supplement-free medium. […] Control cells were treated with DMSO (1%) and sodium acetate in supplement-free medium (4%). The cells were incubated for 6 h. Culture supernatants were collected and sICAM-1 levels were determined using ICAM-1 AlphaLisa® Kit (Perkin Elmer) according to the manufacturer's instruction.

BEAS-2B cells [2] = assay: Morphology of elastase-treated bronchial epithelial cells; details: within 2 h of treatment with human neutrophil elastase
Protocol: FIG. 4. Human neutrophil elastase induces changes in morphology of BEAS-2B cells within 2 h of treatment.
An apparent change in cellular morphology of bronchial epithelial cells was observed within 2 h of elastase treatment, with cells becoming rounded, in contrast to the elongated appearance of control cells (FIG. 4). […] These observations indicated intercellular adhesion molecules as a possible direct target of exogenous elastase in bronchial epithelial cells. […] Several proteases have been implicated in the posttranslational modification of membrane-bound ICAM-1 (mICAM-1) to soluble ICAM-1 (sICAM-1), depending on the cell type. In endothelial, fibroblast and astrocyte cultures, sICAM-1 generation is mediated by a matrix metalloprotease or ADAM 17^24.

Molecule	IC50 (BEAS-2B cells [1]) [nM]	Concentration giving significant decrease of sICAM-1 levels (sICAM-1) [nM]	Effect on elastase-induced change in morphology of BEAS-2B cells (BEAS-2B cells [2])
Elastase: human neutrophil elastase used to challenge bronchial epithelial cells	82		
CC(C)(C)C(=O)Oc1ccc(S(=O)(=O)Nc2ccccc2C(=O)NCC(=O)O)cc1 [sivelestat]		320	reverted
